The data set can be described thus: recombinant UMI read abundance after kanamycin selection (control-corrected) (log10(CPM+1)); higher = more efficient recombination; extreme values may be limits of the assay; sequences stand for … in AGTGCAGAGAAAATCGGCCAGTTTTCTCTGCCTGCAGTCCGCATGCCGTGGGACCCCTTGGGTTCTAACCTGTTGCCTAGATTTATGCAGCGGACTGCCTTTCTCCCAAAGTGATAAACCGG…AGGTTGGTTTCACT; site = the 11-nt donor. An outline of the steps: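 For the IS621 bridge recombinase, a pooled Escherichia coli screen tested donor and donor-binding-loop pairs. Cells received the pair library together with a target plasmid encoding a fixed target and T7-inducible recombinase, then went onto IPTG (0.07 mM) plus kanamycin or unselected plates in duplicate. After PCR across the donor–target junction and sequencing, recombinant UMI counts were normalized to CPM, averaged, and scaled by control-derived factors. Each value is given as log10(CPM+1).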
As for “CGTCTGACATGGACCGGTTTTCCCGGTAATCCGTATTTGAC (site CGTCTGACTGT)”, the “recombinant UMI read abundance (log10)” value came out at 0.908.

“CGTCTGGCATGGACCGGTTTTCCCGGTAATCCGTATTTGCT (site CGTATGGCTAG)”: the “recombinant UMI read abundance (log10)” value turned out to be 0.

Consider “CGTCTGGCATGGACCGGTTTTCCCGGTAATCCGTATTTGCT (site CGTCTGGCTAG)”, for which the “recombinant UMI read abundance (log10)” value came out at 0.46.

Take “CGTCTGGCATGGACCGGTTTTCCCGGTAATCCGTATTTGCT (site CGTGTGGCTAG)”: the “recombinant UMI read abundance (log10)” value was 0.00552.

With “CGTCTGGCATGGACCGGTTTTCCCGGTAATCCGTATTTGCT (site CGTTTGGCTAG)”, the “recombinant UMI read abundance (log10)” value turned out to be 0.

As to “CGTCTTCCATGGACCGGTTTTCCCGGTAATCCGTATTTGTC (site CGTCTTCCTGA)”, the “recombinant UMI read abundance (log10)” value was 1.19.

As to “CGTGAGACATGGACCGGTTTTCCCGGTAATCCGTATTTGAG (site CGTAAGACTCT)”, the “recombinant UMI read abundance (log10)” value worked out at 2.08.

“CGTGAGACATGGACCGGTTTTCCCGGTAATCCGTATTTGAG (site CGTCAGACTCT)”: the “recombinant UMI read abundance (log10)” value worked out at 0.00623.

Turning to “CGTGAGACATGGACCGGTTTTCCCGGTAATCCGTATTTGAG (site CGTGAGACTCT)”, the “recombinant UMI read abundance (log10)” value was 2.08.

As to “CGTGAGACATGGACCGGTTTTCCCGGTAATCCGTATTTGAG (site CGTTAGACTCT)”, the “recombinant UMI read abundance (log10)” value was 0.167.

As for “CGTGCCTCATGGACCGGTTTTCCCGGTAATCCGTATTTGTC (site CGTGCCTCTGA)”, the “recombinant UMI read abundance (log10)” value was 2.03.

For “CGTGGAACATGGACCGGTTTTCCCGGTAATCCGTATTTGTC (site CGTGGAACTAA)”, the “recombinant UMI read abundance (log10)” value was found to be 0.

For the sequence “CGTGGAACATGGACCGGTTTTCCCGGTAATCCGTATTTGTC (site CGTGGAACTCA)”, the “recombinant UMI read abundance (log10)” value amounted to 0.0117.

Take “CGTGGAACATGGACCGGTTTTCCCGGTAATCCGTATTTGTC (site CGTGGAACTGA)”: the “recombinant UMI read abundance (log10)” value came to 1.94.

“CGTGGAACATGGACCGGTTTTCCCGGTAATCCGTATTTGTC (site CGTGGAACTTA)”: the “recombinant UMI read abundance (log10)” value is 0.519.

Consider “CGTGGACCATGGACCGGTTTTCCCGGTAATCCGTATTTGTT (site CGTGGAACTAA)”, for which the “recombinant UMI read abundance (log10)” value was 0.00973.

Consider “CGTGGACCATGGACCGGTTTTCCCGGTAATCCGTATTTGTT (site CGTGGACCTAA)”, for which the “recombinant UMI read abundance (log10)” value came to 0.0211.

Take “CGTGGACCATGGACCGGTTTTCCCGGTAATCCGTATTTGTT (site CGTGGAGCTAA)”: the “recombinant UMI read abundance (log10)” value came to 0.0186.

On to “CGTGGACCATGGACCGGTTTTCCCGGTAATCCGTATTTGTT (site CGTGGATCTAA)”, for which the “recombinant UMI read abundance (log10)” value stood at 0.722.

Consider “CGTGTATCATGGACCGGTTTTCCCGGTAATCCGTATTTGAC (site CGTGTATCTGT)”, for which the “recombinant UMI read abundance (log10)” value was 1.26.

Take “CGTGTATCATGGACCGGTTTTCCCGGTAATCCGTATTTGAC (site CTAGTATCTGT)”: the “recombinant UMI read abundance (log10)” value came to 0.

In the case of “CGTTAAGCATGGACCGGTTTTCCCGGTAATCCGTATTTGAA (site CGTTAAGCTTT)”, the “recombinant UMI read abundance (log10)” value was 2.

Regarding “CGTTACACATGGACCGGTTTTCCCGGTAATCCGTATTTGAG (site CGTTAAACTCT)”, the “recombinant UMI read abundance (log10)” value turned out to be 0.00268.

On to “CGTTACACATGGACCGGTTTTCCCGGTAATCCGTATTTGAG (site CGTTACACTCT)”, for which the “recombinant UMI read abundance (log10)” value worked out at 1.43.

As to “CGTTACACATGGACCGGTTTTCCCGGTAATCCGTATTTGAG (site CGTTAGACTCT)”, the “recombinant UMI read abundance (log10)” value worked out at 0.0129.

Regarding “CGTTACACATGGACCGGTTTTCCCGGTAATCCGTATTTGAG (site CGTTATACTCT)”, the “recombinant UMI read abundance (log10)” value was found to be 0.202.

For “CGTTAGACATGGACCGGTTTTCCCGGTAATCCGTATTTGAC (site CGTTAGACTAT)”, the “recombinant UMI read abundance (log10)” value is 0.0518.

Regarding “CGTTAGACATGGACCGGTTTTCCCGGTAATCCGTATTTGAC (site CGTTAGACTCT)”, the “recombinant UMI read abundance (log10)” value came out at 0.0193.

For the sequence “CGTTAGACATGGACCGGTTTTCCCGGTAATCCGTATTTGAC (site CGTTAGACTGT)”, the “recombinant UMI read abundance (log10)” value was 1.58.

“CGTTAGACATGGACCGGTTTTCCCGGTAATCCGTATTTGAC (site CGTTAGACTTT)”: the “recombinant UMI read abundance (log10)” value turned out to be 0.0068.

On to “CGTTAGACATGGACCGGTTTTCCCGGTAATCCGTATTTGAG (site AGTTAGACTCT)”, for which the “recombinant UMI read abundance (log10)” value came out at 0.0858.

In the case of “CGTTAGACATGGACCGGTTTTCCCGGTAATCCGTATTTGAG (site CATTAGACTCT)”, the “recombinant UMI read abundance (log10)” value came out at 0.498.

In the case of “CGTTAGACATGGACCGGTTTTCCCGGTAATCCGTATTTGAG (site CCTTAGACTCT)”, the “recombinant UMI read abundance (log10)” value was 0.0362.

Consider “CGTTAGACATGGACCGGTTTTCCCGGTAATCCGTATTTGAG (site CGATAGACTCT)”, for which the “recombinant UMI read abundance (log10)” value worked out at 0.838.

In the case of “CGTTAGACATGGACCGGTTTTCCCGGTAATCCGTATTTGAG (site CGCTAGACTCT)”, the “recombinant UMI read abundance (log10)” value came out at 0.501.

As to “CGTTAGACATGGACCGGTTTTCCCGGTAATCCGTATTTGAG (site CGGTAGACTCT)”, the “recombinant UMI read abundance (log10)” value came to 0.157.

For “CGTTAGACATGGACCGGTTTTCCCGGTAATCCGTATTTGAG (site CGTAAGACTCT)”, the “recombinant UMI read abundance (log10)” value was found to be 0.

Turning to “CGTTAGACATGGACCGGTTTTCCCGGTAATCCGTATTTGAG (site CGTCAGACTCT)”, the “recombinant UMI read abundance (log10)” value worked out at 0.944.

Turning to “CGTTAGACATGGACCGGTTTTCCCGGTAATCCGTATTTGAG (site CGTGAGACTCT)”, the “recombinant UMI read abundance (log10)” value amounted to 0.0124.

With “CGTTAGACATGGACCGGTTTTCCCGGTAATCCGTATTTGAG (site CGTTAAACTCT)”, the “recombinant UMI read abundance (log10)” value was 0.893.

Regarding “CGTTAGACATGGACCGGTTTTCCCGGTAATCCGTATTTGAG (site CGTTACACTCT)”, the “recombinant UMI read abundance (log10)” value is 0.00825.

For the sequence “CGTTAGACATGGACCGGTTTTCCCGGTAATCCGTATTTGAG (site CGTTAGACTAT)”, the “recombinant UMI read abundance (log10)” value worked out at 1.08.

On to “CGTTAGACATGGACCGGTTTTCCCGGTAATCCGTATTTGAG (site CGTTAGACTCA)”, for which the “recombinant UMI read abundance (log10)” value amounted to 0.0196.

Take “CGTTAGACATGGACCGGTTTTCCCGGTAATCCGTATTTGAG (site CGTTAGACTCC)”: the “recombinant UMI read abundance (log10)” value came to 0.374.

For “CGTTAGACATGGACCGGTTTTCCCGGTAATCCGTATTTGAG (site CGTTAGACTCG)”, the “recombinant UMI read abundance (log10)” value worked out at 0.

For the sequence “CGTTAGACATGGACCGGTTTTCCCGGTAATCCGTATTTGAG (site CGTTAGACTCT)”, the “recombinant UMI read abundance (log10)” value amounted to 1.55.

With “CGTTAGACATGGACCGGTTTTCCCGGTAATCCGTATTTGAG (site CGTTAGACTGT)”, the “recombinant UMI read abundance (log10)” value came out at 0.00425.

On to “CGTTAGACATGGACCGGTTTTCCCGGTAATCCGTATTTGAG (site CGTTAGACTTT)”, for which the “recombinant UMI read abundance (log10)” value was 0.315.

In the case of “CGTTAGACATGGACCGGTTTTCCCGGTAATCCGTATTTGAG (site CGTTAGCCTCT)”, the “recombinant UMI read abundance (log10)” value worked out at 0.021.

Turning to “CGTTAGACATGGACCGGTTTTCCCGGTAATCCGTATTTGAG (site CGTTAGGCTCT)”, the “recombinant UMI read abundance (log10)” value was determined as 0.214.

For “CGTTAGACATGGACCGGTTTTCCCGGTAATCCGTATTTGAG (site CGTTAGTCTCT)”, the “recombinant UMI read abundance (log10)” value worked out at 0.506.

For the sequence “CGTTAGACATGGACCGGTTTTCCCGGTAATCCGTATTTGAG (site CGTTATACTCT)”, the “recombinant UMI read abundance (log10)” value is 0.0136.

As for “CGTTAGACATGGACCGGTTTTCCCGGTAATCCGTATTTGAG (site CGTTCGACTCT)”, the “recombinant UMI read abundance (log10)” value stood at 0.00605.

Take “CGTTAGACATGGACCGGTTTTCCCGGTAATCCGTATTTGAG (site CGTTGGACTCT)”: the “recombinant UMI read abundance (log10)” value worked out at 0.013.

As for “CGTTAGACATGGACCGGTTTTCCCGGTAATCCGTATTTGAG (site CGTTTGACTCT)”, the “recombinant UMI read abundance (log10)” value turned out to be 0.0164.

Consider “CGTTAGACATGGACCGGTTTTCCCGGTAATCCGTATTTGAG (site CTTTAGACTCT)”, for which the “recombinant UMI read abundance (log10)” value came to 0.00778.

Take “CGTTAGACATGGACCGGTTTTCCCGGTAATCCGTATTTGAG (site GGTTAGACTCT)”: the “recombinant UMI read abundance (log10)” value turned out to be 0.0132.

“CGTTAGACATGGACCGGTTTTCCCGGTAATCCGTATTTGAG (site TGTTAGACTCT)”: the “recombinant UMI read abundance (log10)” value is 0.0126.

“CGTTAGACATGGACCGGTTTTCCCGGTAATCCGTATTTGGG (site CGTTAGACTCA)”: the “recombinant UMI read abundance (log10)” value was 0.

As to “CGTTAGACATGGACCGGTTTTCCCGGTAATCCGTATTTGGG (site CGTTAGACTCC)”, the “recombinant UMI read abundance (log10)” value was 0.0132.

For the sequence “CGTTAGACATGGACCGGTTTTCCCGGTAATCCGTATTTGGG (site CGTTAGACTCG)”, the “recombinant UMI read abundance (log10)” value was found to be 0.0116.

With “CGTTAGACATGGACCGGTTTTCCCGGTAATCCGTATTTGGG (site CGTTAGACTCT)”, the “recombinant UMI read abundance (log10)” value stood at 0.512.

For the sequence “CGTTAGACATGGACCGGTTTTCCCGGTAATCCGTATTTGTG (site CGTTAGACTCA)”, the “recombinant UMI read abundance (log10)” value stood at 1.14.

With “CGTTAGACATGGACCGGTTTTCCCGGTAATCCGTATTTGTG (site CGTTAGACTCC)”, the “recombinant UMI read abundance (log10)” value came to 0.0241.

As for “CGTTAGACATGGACCGGTTTTCCCGGTAATCCGTATTTGTG (site CGTTAGACTCG)”, the “recombinant UMI read abundance (log10)” value was determined as 0.198.

With “CGTTAGACATGGACCGGTTTTCCCGGTAATCCGTATTTGTG (site CGTTAGACTCT)”, the “recombinant UMI read abundance (log10)” value was found to be 0.0332.

As for “CGTTAGTCATGGACCGGTTTTCCCGGTAATCCGTATTTGAG (site CGTTAGACTCT)”, the “recombinant UMI read abundance (log10)” value amounted to 0.0321.

For the sequence “CGTTAGTCATGGACCGGTTTTCCCGGTAATCCGTATTTGAG (site CGTTAGCCTCT)”, the “recombinant UMI read abundance (log10)” value turned out to be 0.0076.
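Further: IS621 bridge recombinase in Escherichia coli cells against a fixed T5 target plasmid.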
